Assay results from US7589232B2, “Alkynyl aryl carboxamides” (Laboratories Serono S.A., priority 2003, dated 2009).
Structures can show the parent of a compound that is named as a salt.

How the values were obtained:
SHP-1 = biological target: T1, SHP-1 (Homo sapiens, UniProt P29350); test: PTP Enzyme Assay (DiFMUP), SHP-1; assay type: biochemical; conditions: 20 μM DiFMUP substrate; catalytic core of human recombinant PTP; triplicates; read-out: IC50 value in respect of SHP-1
T1 construct: using the catalytic core of a human recombinant PTP as the enzyme
T1 sequence (P29350 244-515 limits assumed): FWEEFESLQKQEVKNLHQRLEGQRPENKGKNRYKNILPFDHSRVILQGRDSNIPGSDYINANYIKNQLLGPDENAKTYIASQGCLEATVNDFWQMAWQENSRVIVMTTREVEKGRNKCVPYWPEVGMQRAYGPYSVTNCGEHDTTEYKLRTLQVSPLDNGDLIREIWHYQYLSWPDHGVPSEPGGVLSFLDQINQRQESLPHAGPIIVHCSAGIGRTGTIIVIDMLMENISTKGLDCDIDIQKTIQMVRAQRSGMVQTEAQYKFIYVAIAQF
Procedure: (§1) The PTP Enzyme Assay aims at determining the extent of inhibition of PTPs, e.g. of PTP1B, SHP-1, SHP-2, GLEPP-1 or PTP-H1 in the presence of a test compound of formula (I) or (I′). The inhibition is illustrated by IC50 values which denote the concentration of test compound necessary to achieve an inhibition of 50% of said PTP's using the following concentration of the PTP substrate DiFMUP: • 5 μM DiFMUP for PTP1B and PTP-H1; • 20 μM DiFMUP for SHP-1 and SHP-2. • 30 μM DiFMUP for GLEPP-1. a) PTPs Cloning
(§2) The DiFMUP assay allows to follow the dephosphorylation of DiFMUP (6,8-DiFluoro-4-MethylUmbelliferyl Phosphate)—which is the PTP substrate—mediated by PTP into its stable hydrolysis product, i.e. DiFMU (6,8-difluoro-7-hydroxy coumarin). Due to its rather low pKa and its high quantum yield, DiFMU allows to measure both acidic and alkaline phosphatase activities with a great sensitivity.
(§3) Assays were performed in a 96 well plate format, using the catalytic core of a human recombinant PTP as the enzyme and 6,8-DiFluoro-4-MethylUmbelliferyl Phosphate (DiFMUP, Molecular Probes, D-6567) as a substrate. Compounds to be tested were dissolved in 100% DMSO at a concentration of 2 mM. Subsequent dilutions of the test compounds (to yield a concentration of 100, 30, 10, 3, 1, 0.3, 0.1, 0.03, 0.01, 0.001 μM) wore performed in 60% DMSO manually. 8 μl of diluted compound or vehicle (60% DMSO=control) was distributed to a black Costar 96 well plate. 42 μl of human recombinant PTP enzyme diluted in assay buffer (20 mM Tris HCl pH 7.5, 0.01% IGEPAL CA-630, 0.1 mM ethylenediaminetetracetic acid, 1 mM DL-Dithiothreitol) can be added to the dilutions of compound or vehicle (distributed to a black Costar 96 well plate), followed by 50 μl of DiFMUP diluted in the assay buffer. The reaction ran for 30 minutes at room temperature before reading the fluorescence intensity (integral or intensity) on a Perkin-Elmer Victor 2 spectrofluorimeter (excitation of 6,8-difluoro-7-hydroxy coumarin is at 355 nm, the emission at 460 nm, for 0.1 s). The percentage of inhibition is determined by measuring the relative fluorescence ion absence of a test compound (PTP inhibitor), i.e. with the solvent alone (5% DMSO). The IC50 values for inhibition were determined in triplicates.

PTP-H1 = biological target: T2, PTP-H1 (Homo sapiens, UniProt P26045); test: PTP Enzyme Assay (DiFMUP), PTP-H1; assay type: biochemical; conditions: 5 μM DiFMUP substrate; catalytic core of human recombinant PTP; triplicates; read-out: IC50 value in respect of PTP-H1
T2 construct: using the catalytic core of a human recombinant PTP as the enzyme
T2 sequence (P26045 646-901 limits assumed): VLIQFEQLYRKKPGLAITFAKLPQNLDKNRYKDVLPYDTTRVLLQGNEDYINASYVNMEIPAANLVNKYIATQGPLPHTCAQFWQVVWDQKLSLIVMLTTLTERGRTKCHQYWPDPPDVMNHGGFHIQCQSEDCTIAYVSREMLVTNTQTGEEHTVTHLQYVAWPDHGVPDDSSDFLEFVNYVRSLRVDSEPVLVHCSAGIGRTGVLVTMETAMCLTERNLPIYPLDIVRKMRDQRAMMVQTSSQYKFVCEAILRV
Procedure: as §1, §2, §3

PTP1B = biological target: T3, PTP1B (Homo sapiens, UniProt P18031); test: PTP Enzyme Assay (DiFMUP), PTP1B; assay type: biochemical; conditions: 5 μM DiFMUP substrate; catalytic core of human recombinant PTP; triplicates; read-out: IC50 value in respect of PTP1B
T3 construct: using the catalytic core of a human recombinant PTP as the enzyme; made in house
T3 sequence (P18031 3-277 limits assumed): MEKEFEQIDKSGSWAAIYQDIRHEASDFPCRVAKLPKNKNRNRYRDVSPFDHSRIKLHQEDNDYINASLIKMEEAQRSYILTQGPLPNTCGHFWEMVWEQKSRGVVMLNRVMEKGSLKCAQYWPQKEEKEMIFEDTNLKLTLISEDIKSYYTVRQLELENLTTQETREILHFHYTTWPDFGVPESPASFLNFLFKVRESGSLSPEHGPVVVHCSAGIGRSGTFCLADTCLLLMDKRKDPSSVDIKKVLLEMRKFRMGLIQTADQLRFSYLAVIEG
Procedure: as §1
The cloning and expression of the catalytic domain e.g. of PTP1B, may be performed as described in J. Biol. Chem. 2000, 275(13), pp 9792-9796.
as §2, §3

SHP-2 = biological target: T4, SHP-2 (Homo sapiens, UniProt Q06124); test: PTP Enzyme Assay (DiFMUP), SHP-2; assay type: biochemical; conditions: 20 μM DiFMUP substrate; catalytic core of human recombinant PTP; triplicates; read-out: IC50 value in respect of SHP-2
T4 construct: using the catalytic core of a human recombinant PTP as the enzyme
T4 sequence (Q06124 247-517 limits assumed): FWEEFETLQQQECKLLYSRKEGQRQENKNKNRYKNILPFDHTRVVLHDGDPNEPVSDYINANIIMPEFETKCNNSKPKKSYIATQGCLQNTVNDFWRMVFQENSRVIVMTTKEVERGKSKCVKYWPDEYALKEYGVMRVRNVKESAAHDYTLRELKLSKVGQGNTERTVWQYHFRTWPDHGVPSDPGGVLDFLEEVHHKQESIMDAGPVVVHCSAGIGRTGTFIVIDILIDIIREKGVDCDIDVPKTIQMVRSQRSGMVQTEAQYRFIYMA
Procedure: as §1, §2, §3

GLEPP-1 = biological target: T5, GLEPP-1 (Homo sapiens, UniProt Q16827); test: PTP Enzyme Assay (DiFMUP), GLEPP-1; assay type: biochemical; conditions: 30 μM DiFMUP substrate; catalytic core of human recombinant PTP; triplicates; read-out: IC50 value in respect of GLEPP-1
T5 construct: using the catalytic core of a human recombinant PTP as the enzyme
T5 sequence (Q16827 938-1195 limits assumed): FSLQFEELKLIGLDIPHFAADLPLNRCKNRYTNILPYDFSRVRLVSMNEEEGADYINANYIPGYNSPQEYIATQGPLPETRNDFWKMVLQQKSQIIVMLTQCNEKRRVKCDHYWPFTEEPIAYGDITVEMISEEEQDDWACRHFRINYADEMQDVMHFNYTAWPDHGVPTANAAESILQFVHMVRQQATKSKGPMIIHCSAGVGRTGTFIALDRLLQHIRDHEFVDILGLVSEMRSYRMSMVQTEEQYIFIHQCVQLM
Procedure: as §1, §2, §3

db/db mice = test: In vivo assay in db/db mice (postprandial glycemia); conditions: 4 hrs after drug administration, expressed as a percentage of control (vehicle, Group 1)
Procedure: The following assay aims at determining the anti-diabetic effect of the test compounds of formula (I) or (I′) in a model of postprandial glycemia in db/db mice, in vivo.
A total of 18 db/db mice (about 8-9 weeks; obtained from IFFACREDO, l'Arbreste, France) were fasted during 20 hours.
3 groups, each consisting of 6 animals were formed: • Group 1: The animals were administered (per os) a dose of 10 mL/kg of vehicle (control). • Group 2: The animals were administered (per os) a dose of 30 mg/kg of the test compound according to formula (I) solubilized in the vehicle. • Group 3: The animals were administered (per os) a dose of 100 mg/kg of the test compound according to formula (I) solubilized in the vehicle.
After oral administration of the compounds of formula (I) or (I′) solubilized or suspended in CarboxyMethylCellulose (0.5%), Tween 20 (0.25%) in water as vehicle, the animals had access to commercial food (D04, UAR, Villemoisson/Orge, France) ad libitum. The diabetic state of the mice was verified by determining the blood glucose level before fasting. Blood glucose and serum insulin levels were then determined 4 hrs after drug administration.
The determination of the blood glucose level was performed using a glucometer (Ascensia Dex^2, Bayer, ref 3956C).
The determination of the Insulin level was performed using an ELISA kit (Mercodia, ref 10-1149-10).
Changes in blood glucose and serum insulin of drug treated mice were expressed as a percentage of control (group 1: vehicle treated mice).

Row | IC50 (SHP-1) | IC50 (PTP-H1) | IC50 (PTP1B) | IC50 (SHP-2) | IC50 (GLEPP-1) | SMILES | Decrease in blood glucose (db/db mice; Group 2: 30 mg/kg per os) | Decrease in serum insulin (db/db mice; Group 2: 30 mg/kg per os) | Decrease in blood glucose (db/db mice; Group 3: 100 mg/kg per os) | Decrease in serum insulin (db/db mice; Group 3: 100 mg/kg per os)
1 | 1.6 µM | 5.7 µM | 0.29 µM | 1.4 µM | 0.21 µM | CCCCCCCCC#Cc1ccc(CN(Cc2ccc(OCC(=O)O)c(C(=O)O)c2)C(=O)/C=C/c2ccccc2)cc1 [Example 16, 2-(carboxymethoxy)-5-({(4-dec-1-ynylbenzyl)[(2E)-3-3-phenylprop-2-enoyl]amino}methyl)benzoic acid] | – | – | – | –
2 | 3.7 µM | 9.9 µM | 0.49 µM | 1.9 µM | 1.58 µM | CCCCc1ccc(C#Cc2ccc(CN(C(=O)Cc3cccs3)c3ccc(F)c(C(=O)O)c3)cc2)cc1 [Example 68, 5-[{4-[(4-butylphenyl)ethynyl]benzyl}(2-thienylacetyl)amino]-2-fluorobenzoic acid, N-methyl-D-glucamine (i.e. 1-deoxy-1-(methylamino)glucitol) salt] | – | – | – | –
3 | 1.2 µM | 3.37 µM | 0.49 µM | 0.49 µM | 0.61 µM | CCCCCCCCC#Cc1ccc(CN(C(=O)CCC2CCCC2)c2ccc(O)c(C(=O)O)c2)cc1 [Example 2, 5-[(3-cyclopentylpropanoyl)(4-dec-1-ynylbenzyl)amino]-2-hydroxybenzoic acid. N-methyl-D-glucamine (i.e. 1-deoxy-1-(methylamino)glucitol) salt] | 28% | 84% | 58% | 88%
4 | 3 µM | 6.3 µM | 0.97 µM | 2.2 µM | 0.99 µM | CCCCc1ccc(C#Cc2ccc(CN(C(=O)C(C)(C)C)c3ccc(C(=O)O)c(O)c3)cc2)cc1 [Example 76, 4-[{4-[(4-butylphenyl)ethynyl]benzyl}(2,2-dimethylpropanoyl)amino]-2-hydroxybenzoic acid, N-methyl-D-glucamine (i.e. 1-deoxy-1-(methylamino)glucitol) salt] | – | – | – | –
